Consider 36 compounds from patent US8299111B2, “Compounds which modulate the CB2 receptor” (Boehringer Ingelheim International GmbH, priority 2006, dated 2012).

The target in the assay is T1, human CB2R (Homo sapiens, UniProt P34972).
T1 construct: host or cells: CHO cells
T1 sequence (P34972 whole entry): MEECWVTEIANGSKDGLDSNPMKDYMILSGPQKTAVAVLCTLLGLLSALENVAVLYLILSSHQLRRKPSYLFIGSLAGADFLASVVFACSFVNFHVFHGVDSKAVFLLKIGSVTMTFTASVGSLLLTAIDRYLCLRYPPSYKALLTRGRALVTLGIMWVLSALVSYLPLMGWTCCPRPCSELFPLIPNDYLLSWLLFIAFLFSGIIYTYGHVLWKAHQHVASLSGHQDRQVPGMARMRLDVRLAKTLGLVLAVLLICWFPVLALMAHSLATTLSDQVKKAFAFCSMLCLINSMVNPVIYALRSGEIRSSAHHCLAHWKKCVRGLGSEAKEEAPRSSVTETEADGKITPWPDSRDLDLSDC
In words: CB2R mediated modulation of cAMP synthesis. The class given is cell-based. To be noted: found through the use of the above described assays (binding and cAMP); CHO cells expressing human CB2R, forskolin-stimulated cAMP. The essentials:
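CHO cells expressing human CB2R were treated for 30 min at 37 °C with compound in buffer containing 1 mM IBMX, 0.25% BSA and 10 uM forskolin. cAMP was measured after lysis. EC50 is the concentration giving 50% inhibition of forskolin-stimulated cAMP, scaled to the level set by 1 uM CP55940, fitted by four-parameter logistic.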
Regarding `CC(C)(C)c1csc(NC(=O)C(C)(C)S(=O)(=O)c2ccc(Cl)cc2)n1` [N-(4-tert-Butyl-thiazol-2-yl)-2-(4-chloro-benzenesulfonyl)-2-methyl-propionamide], the agonistic activity result is listed as “agonistic activity”.
With `Cc1nc(NC(=O)C(C(C)C)S(=O)(=O)c2ccc(C(F)(F)F)cc2)sc1C(C)(C)C` (stereo not drawn) [N-(5-tert-Butyl-4-methyl-thiazol-2-yl)-3-methyl-2-(4-trifluoromethyl-benzenesulfonyl)-butyramide], the agonistic activity entry is “agonistic activity”.
`CC(C)(C(=O)Nc1cccc(C(F)(F)F)n1)S(=O)(=O)c1ccc(Cl)cc1` [2-(4-Chloro-benzenesulfonyl)-2-methyl-N-(6-trifluoromethyl-pyridin-2-yl)-propionamide]: the agonistic activity result is on record as “agonistic activity”.
For `Cn1nc(C(C)(C)C)cc1NC(=O)C(C)(C)S(=O)(=O)c1ccc(Cl)nc1` [N-(5-tert-Butyl-2-methyl-2H-pyrazol-3-yl)-2-(6-chloro-pyridine-3-sulfonyl)-2-methyl-propionamide], the agonistic activity result was “agonistic activity”.
Consider `CC(C)(C(=O)Nc1ccc(C(F)(F)F)cn1)S(=O)(=O)c1ccccc1F` [2-(2-Fluoro-benzenesulfonyl)-2-methyl-N-(5-trifluoromethyl-pyridin-2-yl)-propionamide], for which the agonistic activity entry is “agonistic activity”.
As for `CCc1sc(NC(=O)C(C)(C)S(=O)(=O)c2ccccc2)nc1-c1ccccc1` [2-Benzenesulfonyl-N-(5-ethyl-4-phenyl-thiazol-2-yl)-2-methyl-propionamide], the agonistic activity entry was “agonistic activity”.
As for `CCOC(=O)c1sc(NC(=O)C(C)(C)S(=O)(=O)c2ccc(Cl)cc2)nc1C(F)(F)F` [ethyl 2-({2-[(4-chlorophenyl)sulfonyl]-2-methylpropanoyl}amino)-4-(trifluoromethyl)-1,3-thiazole-5-carboxylate], the entry is “agonistic activity”; as for `COc1ccc(S(=O)(=O)C(C)(C)C(=O)Nc2cc(C(C)(C)C)nn2C)cn1` [N-(5-tert-Butyl-2-methyl-2H-pyrazol-3-yl)-2-(6-methoxy-pyridine-3-sulfonyl)-2-methyl-propionamide], “agonistic activity”.
Regarding `COc1ccc(S(=O)(=O)C(C)(C)C(=O)Nc2cc(C(C)(C)C)nn2C)cc1` [N-(5-tert-Butyl-2-methyl-2H-pyrazol-3-yl)-2-(4-methoxy-benzenesulfonyl)-2-methyl-propionamide], the agonistic activity result is listed as “agonistic activity”.
Turning to `CC(C)(C)c1cc(NC(=O)C(C)(C)S(=O)(=O)c2ccc(Cl)nc2)no1` [N-(5-tert-Butyl-isoxazol-3-yl)-2-(6-chloro-pyridine-3-sulfonyl)-2-methyl-propionamide], the agonistic activity result is given as “agonistic activity”.
On to `CC(C)(C)c1cc(NC(=O)C(C)(C)S(=O)(=O)c2ccc(Cl)cc2F)on1` [N-(3-tert-Butyl-isoxazol-5-yl)-2-(4-chloro-2-fluoro-benzenesulfonyl)-2-methyl-propionamide], for which the agonistic activity result is recorded as “agonistic activity”.
As for `CC(C)(C(=O)Nc1ccc(C(F)(F)F)cc1)S(=O)(=O)c1ccc(Cl)cc1` [2-(4-Chloro-benzenesulfonyl)-2-methyl-N-(4-trifluoromethyl-phenyl)-propionamide], the entry is “agonistic activity”; as for `CC(C)(C(=O)Nc1ccc(-c2ccccc2)cn1)S(=O)(=O)c1ccc(Cl)cc1` [2-(4-Chloro-benzenesulfonyl)-2-methyl-N-(5-phenyl-pyridin-2-yl)-propionamide], “agonistic activity”; as for `CC(C)(C(=O)Nc1ccc(C(F)(F)F)cn1)S(=O)(=O)c1ccc(C#N)cc1` [2-(4-Cyano-benzenesulfonyl)-2-methyl-N-(5-trifluoromethyl-pyridin-2-yl)-propionamide], “agonistic activity”.
On to `COc1ccc(S(=O)(=O)C(C)(C)C(=O)Nc2cc(C(C)(C)C)nn2C)cc1F` [N-(5-tert-Butyl-2-methyl-2H-pyrazol-3-yl)-2-(3-fluoro-4-methoxy-benzenesulfonyl)-2-methyl-propionamide], for which the agonistic activity result is reported as “agonistic activity”.
For `CC(C)(C)c1cc(NC(=O)C(C)(C)S(=O)(=O)c2ccc(C#N)cc2)no1` [N-(5-tert-Butyl-isoxazol-3-yl)-2-(4-cyano-benzenesulfonyl)-2-methyl-propionamide] the value was “agonistic activity”.
As to `CCCc1cc(NC(=O)C(C)(C)S(=O)(=O)c2ccc(C(F)(F)F)nc2)on1` [2-methyl-N-(3-propylisoxazol-5-yl)-2-{[6-(trifluoromethyl)pyridin-3-yl]sulfonyl}propanamide], the agonistic activity result is reported as “agonistic activity”.
As for `CC(C)(C(=O)Nc1nc(-c2ccc(F)c(F)c2)cs1)S(=O)(=O)c1ccc(Cl)cc1` [2-(4-Chloro-benzenesulfonyl)-N-[4-(3,4-difluoro-phenyl)-thiazol-2-yl]-2-methyl-propionamide], the agonistic activity result is “agonistic activity”.
As for `CC(C)(C(=O)Nc1nc(-c2ccc(Cl)cc2)cs1)S(=O)(=O)c1ccc(Cl)cc1F` [2-[(4-chloro-2-fluorophenyl)sulfonyl]-N-[4-(4-chlorophenyl)-1,3-thiazol-2-yl]-2-methylpropanamide], the entry is “agonistic activity”.
Regarding `Cc1ccc(NC(=O)C(C)(C)S(=O)(=O)c2ccc(S(C)(=O)=O)cc2)nc1` [2-(4-Methanesulfonyl-benzenesulfonyl)-2-methyl-N-(5-methyl-pyridin-2-yl)-propionamide], the agonistic activity entry was “agonistic activity”.
Take `CC(C)(C)c1cc(NC(=O)C(C)(C)S(=O)(=O)c2ccccc2F)[nH]n1` [N-(5-tert-Butyl-2H-pyrazol-3-yl)-2-(2-fluoro-benzenesulfonyl)-2-methyl-propionamide]: the agonistic activity result was “agonistic activity”.
Take `COc1ccc(S(=O)(=O)C(C)(C)C(=O)Nc2nc(C(C)(C)C)cs2)cn1` [N-(4-tert-Butyl-thiazol-2-yl)-2-(6-methoxy-pyridine-3-sulfonyl)-2-methyl-propionamide]: the agonistic activity result was “agonistic activity”.
In the case of `COc1ccc(S(=O)(=O)C(C)(C)C(=O)Nc2cc(C(C)(C)C)no2)cc1` [N-(3-tert-Butyl-isoxazol-5-yl)-2-(4-methoxy-benzenesulfonyl)-2-methyl-propionamide], the agonistic activity entry was “agonistic activity”.
For the compound `CC(C)C(C(=O)Nc1ccc(C(F)(F)F)cn1)S(=O)(=O)c1ccc(C(F)(F)F)cc1` (stereo not drawn) [3-Methyl-2-(4-trifluoromethyl-benzenesulfonyl)-N-(5-trifluoromethyl-pyridin-2-yl)-butyramide], the agonistic activity result is given as “agonistic activity”.
Turning to `CC(C)(C(=O)Nc1cccc2ccccc12)S(=O)(=O)c1ccc(F)cc1F` [2-(2,4-Difluoro-benzenesulfonyl)-2-methyl-N-naphthalen-1-yl-propionamide], the agonistic activity result is “agonistic activity”.
`CC(C)(C)c1cc(NC(=O)CS(=O)(=O)c2ccc(C(F)(F)F)cc2)no1` [N-(5-tert-Butyl-isoxazol-3-yl)-2-(4-trifluoromethyl-benzenesulfonyl)-acetamide]: the agonistic activity entry is “agonistic activity”.
Regarding `Cc1ccc(S(=O)(=O)C(C)(C)C(=O)Nc2cccc(C(F)(F)F)n2)cc1` [2-Methyl-2-(toluene-4-sulfonyl)-N-(6-trifluoromethyl-pyridin-2-yl)-propionamide], the agonistic activity entry is on record as “agonistic activity”.
With `COc1ccc(S(=O)(=O)C(C)(C)C(=O)Nc2nc(C(F)(F)F)cs2)cc1` [2-(4-Methoxy-benzenesulfonyl)-2-methyl-N-(4-trifluoromethyl-thiazol-2-yl)-propionamide], the agonistic activity result was “agonistic activity”.
`CC(C)(C(=O)Nc1cc(-c2ccccc2)on1)S(=O)(=O)c1ccc(Cl)cc1` [2-(4-Chloro-benzenesulfonyl)-2-methyl-N-(5-phenyl-isoxazol-3-yl)-propionamide]: the agonistic activity result was “agonistic activity”.
As for `CC(C)(C(=O)Nc1nc(-c2cccnc2)cs1)S(=O)(=O)c1ccc(Cl)cc1` [2-(4-Chloro-benzenesulfonyl)-2-methyl-N-(4-pyridin-3-yl-thiazol-2-yl)-propionamide], the agonistic activity result is reported as “agonistic activity”.
In the case of `CC(C)(C)c1csc(NC(=O)C2(S(=O)(=O)c3ccc(C(F)(F)F)cc3)CC2)n1` [1-(4-Trifluoromethyl-benzenesulfonyl)-cyclopropanecarboxylic acid (4-tert-butyl-thiazol-2-yl)-amide], the agonistic activity entry is “agonistic activity”.
In the case of `CC(C)(C(=O)Nc1cccnc1)S(=O)(=O)c1ccc(Cl)cc1` [2-(4-Chloro-benzenesulfonyl)-2-methyl-N-pyridin-3-yl-propionamide], the agonistic activity result is recorded as “agonistic activity”.
In the case of `CC(C)(C)c1cc(NC(=O)C(C)(C)S(=O)(=O)c2ccc(F)cc2F)no1` [N-(5-tert-Butyl-isoxazol-3-yl)-2-(2,4-difluoro-benzenesulfonyl)-2-methyl-propionamide], the agonistic activity result is reported as “agonistic activity”.
As to `Cc1ccc(S(=O)(=O)C(C)(C)C(=O)Nc2cc(C(C)(C)C)nn2C)cc1F` [N-(5-tert-Butyl-2-methyl-2H-pyrazol-3-yl)-2-(3-fluoro-4-methyl-benzenesulfonyl)-2-methyl-propionamide], the agonistic activity result is “agonistic activity”.
Consider `COc1ccc(S(=O)(=O)C(C)(C)C(=O)Nc2ccc(C(F)(F)F)cn2)cc1F` [2-(3-Fluoro-4-methoxy-benzenesulfonyl)-2-methyl-N-(5-trifluoromethyl-pyridin-2-yl)-propionamide], for which the agonistic activity result was “agonistic activity”.
On to `CC(C)(C(=O)Nc1ccc(C(F)(F)F)cn1)S(=O)(=O)c1ccc(C(F)(F)F)nc1` [2-Methyl-2-(6-trifluoromethyl-pyridine-3-sulfonyl)-N-(5-trifluoromethyl-pyridin-2-yl)-propionamide], for which the agonistic activity entry is recorded as “agonistic activity”.
